Laboratory results published in publication PMC6269910 (Molecules, 2013).
Values joined by “and” are separate entries in the source; they are usually repeats but may differ in a detail not shown here. Identical values can stand only once.

How the values were obtained:
[1] = system: acetic acid-induced abdominal constriction; assay: Acetic acid-induced writhing (Koster) test; format: in vivo, mice; settings: 100 mg/kg oral; for Writhing test (Mean ± SEM): writhings counted 10 min from 5 min after acetic acid
Method: Test samples, suspended in a mixture of distilled water and 0.5% sodium carboxymethyl cellulose (CMC), were given orally to the animals. The control group animals received the same experimental handling as those of the test groups, except that the drug treatment was replaced with appropriate volumes of the dosing vehicle. […] One hour after oral administration of test sample, each mouse was injected intraperitoneally with 3% (w/v) acetic acid solution (0.1 mL/10 g, bw). Starting 5 min after the acetic acid injection, the number of muscular contractions on mice were counted for a period of 10 min. A significant reduction in the number of writhings by any treatment as compared to the number of writhings in control animals was considered a positive analgesic response. The analgesic activity was expressed as a percentage change from writhing controls. ASA was used as a reference compound and administered at 200 mg/kg.

[2] = system: carrageenan-induced hind paw edema; assay: Carrageenan-induced hind paw edema model; format: in vivo, mice; settings: for anti-inflammatory activity (in words): all doses, all measurement intervals
Method: Locally bred balb/c mice of both sexes (30-35 g) were purchased from the animal breeding laboratories of Inonu University ([…], Turkey). The animals were fed a standard pellet diet and water ad libitum in a temperature-controlled room. On the day before the treatments, food was withdrawn, but the animals were allowed free access of water. The allocation of animals to different groups was randomized, and the experiments were carried out under blind conditions. Mice used in the present study were cared for in accordance with the directory of the Inonu University Animal Care Unit, which applies the guidelines of the National Institutes of Health on laboratory animal welfare. Procedures involving animals and their care were conducted in conformity with international laws and policies and animal studies accepted by Inonu University Ethical Council (2011/A17). Test samples, suspended in a mixture of distilled water and 0.5% sodium carboxymethyl cellulose (CMC), were given orally to the animals. The control group animals received the same experimental handling as those of the test groups, except that the drug treatment was replaced with appropriate volumes of the dosing vehicle. […] For the preliminary activity screening, each test group was composed of four mice. […] Because of the daily changing circumstance, we used another control group for each experiment. For the determination of the effects on carrageenan-induced paw oedema, the modified method of Kasahara et al. was employed. One hour after the oral administration of either test sample or dosing vehicle, each mouse was injected with a freshly prepared (0.5 mg/25 μL) suspension of carrageenan (Sigma, St. Louis, MO, USA) in physiological saline (154 mM NaCl). The subplantar tissue of the right hind paw was the injection site for all mice. The contralateral paw (left hind paw) was injected with 25 μL saline solution as the internal control. […] The difference in footpad thickness between the right and left foot indicated the degree of inflammation for each mouse. The change in paw volume, either increase or decrease, was calculated and compared with the control group (dosing vehicle) and analyzed using statistical methods.

[3] = target: T1, HCV NS5B RNA dependent RNA polymerase (Hepatitis C virus genotype 1b, UniProt P26663); assay: NS5B inhibition assay (primer dependent elongation, poly rA-U12); format: biochemical; settings: for inhibition at 100 µM: read-out: Anti-NS5B Activity (% Inh., 100 µM)
T1 construct: HCV NS5B RNA dependent RNA polymerase activity
Method: The compounds 1a–e and 2a–e were reconstituted in DMSO as 50 mM stocks, and serially diluted in DMSO to obtain working stocks. Wedelolactone, a known inhibitor of HCV NS5B activity, was employed as a reference compound. Preliminary screening was carried out at 100 μM to identify a wider range of compounds.
All synthesized compounds were evaluated for their effect on HCV NS5B RNA dependent RNA polymerase activity in primer dependent elongation assays as previously described. Activity of NS5B in the absence of the inhibitor but containing an equivalent amount of DMSO (control reaction) was set at 100% and that in the presence of the inhibitor was quantified relative to this control.

[4] = system: lipid peroxidation in stomach; assay: Lipid peroxidation in stomach (TBARS); format: in vivo, mice; settings: 100 mg/kg, 8 h after analgesic test
stomach = assay: Gastric-ulcerogenic effect (ulcer score); format: in vivo, mice; settings: 200 mg/kg p.o.; animals with lesions/animals

T1 sequence (P26663 2420-3010): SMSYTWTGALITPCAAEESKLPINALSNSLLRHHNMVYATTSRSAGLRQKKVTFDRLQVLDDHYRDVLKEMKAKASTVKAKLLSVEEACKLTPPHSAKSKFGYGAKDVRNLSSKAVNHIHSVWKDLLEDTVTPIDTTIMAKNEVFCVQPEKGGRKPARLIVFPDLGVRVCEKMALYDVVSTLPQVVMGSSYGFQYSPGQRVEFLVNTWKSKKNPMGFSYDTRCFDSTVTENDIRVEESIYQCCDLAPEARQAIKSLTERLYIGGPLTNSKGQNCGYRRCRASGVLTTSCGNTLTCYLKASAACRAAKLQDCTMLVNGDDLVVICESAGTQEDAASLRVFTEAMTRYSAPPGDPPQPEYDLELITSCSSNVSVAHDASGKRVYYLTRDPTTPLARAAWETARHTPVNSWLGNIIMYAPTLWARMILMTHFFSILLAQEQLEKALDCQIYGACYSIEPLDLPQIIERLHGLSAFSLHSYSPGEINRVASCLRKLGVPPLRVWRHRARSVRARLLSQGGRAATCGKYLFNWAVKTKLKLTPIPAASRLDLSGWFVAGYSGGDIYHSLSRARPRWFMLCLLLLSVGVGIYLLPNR

Row | SMILES | Writhing test (% inh.) [1] | Writhing test (Mean ± SEM) [1] | Swelling in thickness ± SEM ([2]; 50 mg/kg per os, 90 min) | percent inhibitory activity ([2]; 50 mg/kg per os, 90 min) | Swelling in thickness ± SEM ([2]; 50 mg/kg per os, 180 min) | percent inhibitory activity ([2]; 50 mg/kg per os, 180 min) | Swelling in thickness ± SEM ([2]; 50 mg/kg per os, 270 min) | percent inhibitory activity ([2]; 50 mg/kg per os, 270 min) | Swelling in thickness ± SEM ([2]; 50 mg/kg per os, 360 min) | percent inhibitory activity ([2]; 50 mg/kg per os, 360 min) | Swelling in thickness ± SEM ([2]; 100 mg/kg per os, 90 min) | Swelling in thickness ± SEM ([2]; 100 mg/kg per os, 270 min) | percent inhibitory activity ([2]; 100 mg/kg per os, 270 min) | Swelling in thickness ± SEM ([2]; 100 mg/kg per os, 360 min) | percent inhibitory activity ([2]; 100 mg/kg per os, 360 min) | Swelling in thickness ± SEM ([2]; 200 mg/kg per os, 90 min) | Swelling in thickness ± SEM ([2]; 200 mg/kg per os, 180 min) | Swelling in thickness ± SEM ([2]; 200 mg/kg per os, 270 min) | Swelling in thickness ± SEM ([2]; 200 mg/kg per os, 360 min) | percent inhibitory activity ([2]; 200 mg/kg per os, 360 min) | other results
1 | Cc1ccc(-c2cc(C(F)(F)F)nn2-c2ccc(S(=O)(=O)NC(=S)Nc3ccc([N+](=O)[O-])cc3)cc2)cc1 [Compound 1d] | 19.5% | 14.0 ± 3.0 | 70.0 ± 4.7 × 10^−2 mm | 2.7% | 77.0 ± 2.0 × 10^−2 mm | 16.3% | 112.0 ± 7.3 × 10^−2 mm | 7.4% | 125.0 ± 5.9 × 10^−2 mm | 3.1% | 95.9 ± 10.2 × 10^−2 mm | 110.7 ± 11.0 × 10^−2 mm | 8.5% | 88.7 ± 9.3 × 10^−2 mm | 31.2% | 45.9 ± 10.9 × 10^−2 mm | 65.3 ± 6.4 × 10^−2 mm | 98.2 ± 9.8 × 10^−2 mm | 91.0 ± 3.3 × 10^−2 mm | 29.5% | percent inhibitory activity ([2]; 200 mg/kg per os, 90 min): 36.2%; percent inhibitory activity ([2]; 200 mg/kg per os, 180 min): 29.0%; percent inhibitory activity ([2]; 200 mg/kg per os, 270 min): 19.0%; anti-inflammatory activity (in words) [2]: moderate-to-good; IC50 ([3]; dose-response, 8–12 concentrations): 46 µM and 45.5 µM; inhibition at 100 µM [3]: 68%; Lipid peroxidation [4]: 429.2 ± 23.2 nmol TBARS/g wet weight; Ulcer score (stomach): 0/5; melting point: 245 to 248 °C
2 | Cc1ccc(-c2cc(C(F)(F)F)nn2-c2ccc(S(=O)(=O)NC(=S)Nc3ccc(C(F)(F)F)cc3)cc2)cc1 [Compound 1e] | −37.9% | 24.0 ± 3.0 | 47.0 ± 3.3 × 10^−2 mm | 34.7% | 57.0 ± 6.2 × 10^−2 mm | 38.0% | 92.0 ± 1.2 × 10^−2 mm | 23.9% | 106.0 ± 6.7 × 10^−2 mm | 17.8% | 88.4 ± 2.6 × 10^−2 mm | 88.7 ± 11.4 × 10^−2 mm | 26.7% | 83.4 ± 9.6 × 10^−2 mm | 35.4% | 76.9 ± 5.7 × 10^−2 mm | 83.0 ± 6.8 × 10^−2 mm | 110.5 ± 7.5 × 10^−2 mm | 103.7 ± 5.2 × 10^−2 mm | 19.6% | Swelling in thickness ± SEM ([2]; 100 mg/kg per os, 180 min): 83.9 ± 3.4 × 10^−2 mm; percent inhibitory activity ([2]; 100 mg/kg per os, 180 min): 8.8%; anti-inflammatory activity (in words) [2]: moderate-to-good; inhibition at 100 µM [3]: 14.6%; Lipid peroxidation [4]: 406.9 ± 27.0 nmol TBARS/g wet weight; Ulcer score (stomach): 0/5; melting point: 228 to 231 °C
